Columns and labels:
[1] = Colistin in contents of broiler gastrointestinal segments and feces after feeding treatment (UPLC-MS/MS); type: in vivo, cobb broilers; settings: broilers fed colistin 20 mg/kg body weight for 14 days
Protocol: (§1) Eight weaned piglets (Duroc × Landrace × Large white) 3~4 weeks of age were used in a 14-day feeding trial. First, all piglets were fed with the base diet (Table S1) for an adapting period of 6 days. Subsequently, four piglets fed the base diet were kept as untreated controls, and the other four piglets were fed the base diet, which was supplemented with colistin sulphate at 20 mg/kg of body weight for 14 consecutive days. Thereafter, feces were collected, and the piglets were slaughtered to obtain contents from the swine gastrointestinal segments, including stomach, duodenum, jejunum and cecum. The sixteen cobb broilers 1–3 days in age were selected and fed with a drug-free balanced diet (Table S2) during the 14-day adaption period and the subsequent treatment period. Then, eight broilers were kept as untreated controls, and the other eight broilers were fed with colistin at 20 mg/kg of body weight for 14 consecutive days. At the end of the trial, treated and untreated animals were sacrificed, and the contents derived from the gizzard, proventriculus, duodenum, jejunum, ileum and cecum were recovered. All samples were stored at −80 °C before being analyzed.
(§2) The extraction procedure was based on the methods developed by Fu with some modifications. Briefly, 2 g of samples was lyophilized to dryness and extracted twice with 10 mL of 10% trichloroacetic acid: acetonitrile (40:60, v/v), and the combined extraction solution was adjusted to pH 9.0. Thereafter, the extraction solution was applied to Oasis WCX SPE cartridges which were prewashed with 3 mL of methanol and 3 mL of water. The cartridges were then rinsed with 3 mL of water, 3 mL of methanol and 3 mL of 5% formic acid in water. Eventually, the colistin was eluted with 5 mL of 20% formic acid in methanol. The eluent was evaporated to dryness by vacuum centrifugation at 50 °C and resuspended in 500 μL of deionized water prior to measurement using an UPLC–MS/MS system.
(§3) Chromatography of colistin was conducted with an UltiMate 3000 UPLC system (Thermo Fisher, San Jose, CA, USA) equipped with an Acquity UPLC BEH C18 column (2.1 mm × 100 mm; 1.7 µm particle size; Waters, Milford, MA, USA). The mobile phase A was 0.2% formic acid, 5% acetonitrile in H2O; B was 100% acetonitrile. The colistin was resolved with a linear gradient starting from 95% A solvent to 70% B solvent over 5 min and then to 5% A at 10 min, at a flow rate of 200 µL/min.
(§4) MS spectra were acquired at positive ionization mode with a hybrid quadrupole-obitrap mass spectrometer (Q Exactive, Thermo Fisher, San Jose, CA, USA). The sheath gas flow rate was 25 mL/min; the auxiliary gas flow rate was 15 mL/min; the spray voltage was 3.2 kV; and the temperature of the capillary tube was set to 320 °C. One microscan was used for data acquisition. The resolution settings were full MS target 70,000 and MS/MS target 17,500; normalized CE 20% and 22% were employed for colistin A and colistin B, respectively. Data manipulations were employed using Xcalibur version 4.0 software. Quantitative analyses were conducted in the selective reaction monitoring (SRM) scan mode. The two most abundant fragment ions were selected from each analyte for analysis (Figure S1). The transitions monitored and approximate chromatographic retention times (tR) were as follows: colistin A ([M + 3H]^3+), m/z 390.60 > 101.0696, 241.1860, tR = 7.30 min; colistin B ([M + 3H]^3+), m/z 385.90 > 101.0696, 227.1710, tR = 6.85 min. The mass tolerance was set to 5 ppm for fragment ions.
(§5) Colistin-treated samples and controls were subject to analysis using the proposed method, including stomach, duodenum, jejunum and cecum content samples and feces samples recovered from 4 treated and 4 untreated piglets; gizzard, proventriculus, duodenum, jejunum, ileum and cecum content samples and feces samples from 8 treated and 8 control cobb broilers. […]

[2] = Colistin in contents of swine gastrointestinal segments and feces after feeding treatment (UPLC-MS/MS); type: in vivo, piglets (Duroc × Landrace × Large white); settings: n = 4
Protocol: as §1, §2, §3, §4, §5

[3] = pigs, single oral administration, cited from earlier work
Excerpt: Nutrients and drugs are known to be mainly absorbed in the small intestine of animals and humans after oral administration. The dosing regimen of colistin in clinical use depends upon the pharmacokinetics and pharmacodynamics of colistin in humans. Meanwhile, the absorption of oral drugs in the digestive tract is crucial for the dosing regimen as well. Unlike for human medicine, a few studies have been conducted in animals to evaluate the pharmacokinetics and pharmacodynamics of colistin following oral administration. One study has measured colistin in the whole intestin ...

Colistin
decrease of the amount of colistin from the cecum to feces [1]: at least 5 fold
estimate of colistin in samples from the cecum, regardless of the moisture ([1]; cecum content, dried weight, mean ± standard deviation, n = 8): 15766.0 ± 9249.2 ng/g
average concentration of colistin, cecum ([1]; cecum content, wet weight, mean, n = 8): 4882.9 ng/g
average concentration of colistin, duodenum ([1]; duodenum content, wet weight, mean, n = 8): 383.7 ng/g
estimate of colistin in samples from feces, regardless of the moisture ([1]; feces, dried weight, mean ± standard deviation, n = 8): 823.4 ± 616.4 ng/g
average concentration of colistin in feces samples ([1]; feces, wet weight, mean, n = 8): 147.7 ng/g
average concentration of colistin, gizzard ([1]; gizzard content, wet weight, mean, n = 8): 1145.7 ng/g
average concentration of colistin, ileum ([1]; ileum content, wet weight, mean, n = 8): 2056.1 ng/g
average concentration of colistin, jejunum ([1]; jejunum content, wet weight, mean, n = 8): 1572.3 ng/g
average concentration of colistin, proventriculus ([1]; proventriculus content, wet weight, mean, n = 8): 448.3 ng/g
average amount of colistin in content recovered from the cecum, based on dried weight ([2]; piglets fed colistin sulphate 20 mg/kg body weight for 14 days, cecum content, dried weight): ~ 3300 ng/g
concentration of colistin in content from the cecum ([2]; piglets fed colistin sulphate 20 mg/kg body weight for 14 days, cecum content, wet weight, UPLC-MS/MS, mean ± standard deviation): 398.3 ± 161.2 ng/g
average concentration of colistin in samples from the duodenum ([2]; piglets fed colistin sulphate 20 mg/kg body weight for 14 days, duodenum content, UPLC-MS/MS): ~ 30 ng/g
average amount of colistin in feces, based on dried weight ([2]; piglets fed colistin sulphate 20 mg/kg body weight for 14 days, feces, dried weight): ~ 3300 ng/g
average concentration of colistin in samples from the jejunum ([2]; piglets fed colistin sulphate 20 mg/kg body weight for 14 days, jejunum content, UPLC-MS/MS): ~ 30 ng/g
average concentration of colistin in feces samples ([2]; piglets fed colistin sulphate 20 mg/kg body weight in diet for 14 consecutive days, feces, wet weight, UPLC-MS/MS, mean): approximately 1248.3 ng/g
peak concentration of colistin in samples from the duodenum to ileum, highest level ([3]; HPLC-Fluorescence after derivatization): ~ 90,000 ng/g
colistin in samples from duodenum to ileum after 4 h ([3]; after 4 h, HPLC-Fluorescence): no colistin was detected

— article PMC8070394, “Determination of Colistin in Contents Derived from Gastrointestinal Tract of Feeding Treated Piglet and Broiler” (Antibiotics, 2021)
